Source: article PMC3448856 (Biochemistry, 2012)
Values joined by “and” are separate entries in the source; they are usually repeats but may differ in a detail not shown here. Equal values may be shown once. Peptide text beside a SMILES is read from it. * marks the point of attachment. Tos = Cc1ccc(S(=O)(=O)*)cc1; Bn = c1ccc(C*)cc1

Legend:
APE-1 [1] = biological target: T1, APE-1 (Homo sapiens, UniProt P27695); test: Molecular beacon assay for APE-1 endonuclease inhibition; type: biochemical; conditions: endonuclease activity; cells printed ND
T1 sequence (P27695 whole entry): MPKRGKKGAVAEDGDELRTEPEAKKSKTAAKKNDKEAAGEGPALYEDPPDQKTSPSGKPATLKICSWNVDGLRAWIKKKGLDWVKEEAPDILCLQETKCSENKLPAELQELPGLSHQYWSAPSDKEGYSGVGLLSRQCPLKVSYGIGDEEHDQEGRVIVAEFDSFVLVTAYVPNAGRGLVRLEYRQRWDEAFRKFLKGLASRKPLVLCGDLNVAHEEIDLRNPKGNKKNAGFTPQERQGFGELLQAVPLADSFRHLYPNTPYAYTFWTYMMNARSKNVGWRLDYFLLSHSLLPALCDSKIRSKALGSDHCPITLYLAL

APE-1 [2] = biological target: T1, APE-1; test: Gel-based assay for APE-1 inhibitors; type: biochemical; conditions: in gel excision assay; 20 nM APE-1, 100 nM duplex DNA with THF abasic site
T98G cells [3] = test: Quantification of abasic sites; conditions: for level of aldehyde reactive sites (ARS): 0.25 μM compound alone, up to 18 h, background 1/10^5 nucleotides; for level of ARS in combination with MeLex: 80 μM MeLex + 0.25 μM compound, through at least 12 h
T98G cells [4] = test: Short term; type: cell-based, human; conditions: for LD10 concentration: 72 h MTS assay
T98G cells [5] = test: Long term; type: cell-based, human
unmodified hairpin DNA = test: EtBr fluorescence titration with unmodified hairpin DNA; type: binding; conditions: unmodified hairpin DNA (data not shown)
THF modified hairpin DNA = test: EtBr fluorescence titration with THF modified hairpin DNA; type: binding; conditions: THF modified hairpin DNA (data not shown)
double-stranded DNA = conditions: cited from earlier work
DNA with a bulge = conditions: cited from earlier work
[6] = biological target: APE-1 activity in T98G cell nuclear lysates (Homo sapiens, UniProt P27695); test: Molecular beacon assay with T98G cell nuclear lysates; type: biochemical; conditions: EC2nM APE-1 activity
APE-1 activity in T98G cell nuclear lysates, sequence (P27695 whole entry, stated change not applied): as the sequence (P27695 whole entry) above

[7] = test system: self-complementary sequence 5′-GAGAGCGCTCTC; test: UV melting, self-complementary DNA; type: binding; conditions: TM without compound 36.4 °C
[8] = test system: hairpin with the THF abasic site; test: UV melting, hairpin with THF abasic site; type: binding
T98G cells [9] = test: Potentiation of MeLex cytotoxicity, short-term; type: cell-based, human; conditions: for LD50 of MeLex in the presence of LD10 concentration of inhibitor: 72 h MTS assay, MeLex by itself 267 μM
T98G cells [10] = test: Potentiation of MeLex cytotoxicity, long term; type: cell-based, human; conditions: long term assay; for LD50 of MeLex in the presence of LD10 concentration of inhibitor: MeLex alone 9.9 μM
APE-1 [11] = biological target: T1, APE-1; test: Fluorescence binding of 4 to APE-1 and displacement by E3330; conditions: displacement of 6 μM 4 from 1 μM APE-1
[12] = test system: APE-1 endonuclease activity; conditions: at 100 μM concentration; cited from earlier work
APE-1 redox = conditions: read-out: IC50 for redox inhibition; cited from earlier work
[13] = test system: HEYC-2 ovarian tumor cells; conditions: read-out: IC50 for cell growth; cited from earlier work
[14] = test system: SKOV-3X ovarian tumor cells; conditions: read-out: IC50 for cell growth; cited from earlier work
VERA kidney cell line = conditions: read-out: IC50 for the toxicity; cited from earlier work

O=C(NNc1ccnc2cc(Cl)ccc12)/C(=C/c1ccccc1Cl)NC(=O)c1ccccc1 [Compound 15]
Ki (APE-1 [1]): > 100 µM

Nc1ncnc2c1ncn2C1OC(C(=O)NCC(=O)O)C(O)C1O (stereo not drawn) [Compound 16]
Ki (APE-1 [1]): > 100 µM

COc1ccc2c(C)cc(N/N=C(\C)c3cn(C)n(-c4ccccc4)c3=O)nc2c1 [Compound 8]
Ki (APE-1 [1]): > 100 µM
IC50 (APE-1 [2]): > 100 µM
level of aldehyde reactive sites (ARS) (T98G cells [3]): same as background

CC(NC(=O)/C(=C\c1ccccc1)NC(=O)c1ccccc1)c1ccccc1 (stereo not drawn) [Compound 22]
Ki (APE-1 [1]): > 100 µM

CNC(=O)Oc1cc([N+](C)(C)C)ccc1C [Compound 21]
Ki (APE-1 [1]): > 100 µM

methyl 3-(1-methyl-5-(1-methyl-5-(propylcarbamoyl)-1H-pyrrol-3-ylcarbamoyl)-1H-pyrrol-3-ylamino)-3-oxopropane-1-sulfonate [MeLex, reference compound]
LD50 (T98G cells [4]; short term (72 h) MTS assay, compound alone): 250 µM and 267 µM
LD50 (T98G cells [5]; long term assay, compound alone): 12 µM and 9.9 µM
induction of ARS (T98G cells [3]; 80 μM MeLex, through the first 4 h): 36 /10^5 nucleotides

CC[n+]1c(-c2ccccc2)c2cc(N)ccc2c2ccc(N)cc21 [EtBr, ethidium bromide]
Kd (unmodified hairpin DNA): 1.6 µM
Kd (THF modified hairpin DNA): 1.8 µM
Kd (double-stranded DNA): ~1 µM
stronger binding to DNA with a bulge than to double-stranded DNA (DNA with a bulge): ~10 fold
level of aldehyde reactive sites (ARS) (T98G cells [3]): no affect
level of ARS in combination with MeLex (T98G cells [3]): dropped off

COc1cccc(/C=N/Nc2cc(C)nc3cc4c(cc23)OCO4)c1 [Compound 2]
IC50 (APE-1 [2]): 10.1 µM
Ki [6]: 0.24 µM

CCn1c2ccccc2c2cc(/C=N/Nc3cc(C)nc4cc5c(cc34)OCO5)ccc21 [Compound 4]
IC50 (APE-1 [2]): 4.1 µM
Ki [6]: 0.21 µM
TM of DNA in presence of compound [7]: 37.3 °C
increase in stability (TM) of hairpin [8]: not appreciably
LD50 (T98G cells [4]; 3-day MTS assay): 0.96 µM
LD10 concentration (T98G cells [4]): 0.25 µM
LD50 (T98G cells [5]; long term (10-day) assay, called clonogenic): 0.19 µM
LD10 concentration (T98G cells [5]; long term assay): 0.08 µM
LD50 of MeLex in the presence of LD10 concentration of inhibitor (T98G cells [9]): 49 µM
potentiation of MeLex toxicity (fold more sensitive) (T98G cells [9]; short term assay, LD10 concentration of inhibitor): approximately 5 fold
potentiation of MeLex toxicity (T98G cells [10]; LD10 concentration of inhibitor): approximately 5 fold
LD50 of MeLex in the presence of LD10 concentration of inhibitor (T98G cells [10]): 1.6 µM
level of aldehyde reactive sites (ARS) (T98G cells [3]): approximately 17 ARS/10^5 nucleotides
level of ARS in combination with MeLex (T98G cells [3]): 63 sites/10^5 nucleotides

Cc1ccc(S(=O)(=O)NC(CSCc2ccccc2)C(=O)NC(Cc2ccc(O)cc2)C(=O)O)cc1 (stereo not drawn) [Compound 25] (Tos-Cys(Bn)-Tyr-OH; configuration not given here)
Ki (APE-1 [1]): > 100 µM

CC(N)C(=O)NC1C(CO)OC(n2cnc3c(N)ncnc32)C1O (stereo not drawn) [Compound 17]
Ki (APE-1 [1]): > 100 µM

CCCCCCCCC/C(=C\C1=C(C)C(=O)C(OC)=C(OC)C1=O)C(=O)O [Compound E3330, (2E)-2-[(4,5-dimethoxy-2-methyl-3,6-dioxo-1,4-cyclohexadien-1-yl)methylene]undecanoic acid]
E3330 concentration for approximately 50% decrease in the fluorescence of 4 (APE-1 [11]): approximately 12 μM
LD50 of MeLex in the presence of LD10 concentration of inhibitor (T98G cells [9]): 128 µM
LD50 of MeLex in the presence of LD10 concentration of inhibitor (T98G cells [10]): little or no contribution
inhibition of APE-1 endonuclease activity [12]: 3 fold
IC50 (APE-1 redox): 10 µM
IC50 [13]: ~35 µM
IC50 [14]: ~35 µM
level of aldehyde reactive sites (ARS) (T98G cells [3]): returned to control levels by 18 h
level of ARS in combination with MeLex (T98G cells [3]): dropped off

Cc1cc(N/N=C/c2ccc3c(c2)OCO3)c2cc3c(cc2n1)OCO3 [Compound 3]
IC50 (APE-1 [2]): 2.9 µM
IC50 (VERA kidney cell line): 0.63 µM

C/C(=N\Nc1cc(C)nc2cc3c(cc12)OCO3)c1cn(C)n(-c2ccccc2)c1=O [Compound 1]
IC50 (APE-1 [2]): 4.4 µM
Ki [6]: 0.45 µM
TM of DNA in presence of compound [7]: 40.8 °C
increase in stability (TM) of hairpin [8]: > 9 °C
LD10 concentration (T98G cells [4]): 2.20 µM
LD10 concentration (T98G cells [5]; long term assay): 0.17 µM
LD50 of MeLex in the presence of LD10 concentration of inhibitor (T98G cells [9]): 54 µM
LD50 of MeLex in the presence of LD10 concentration of inhibitor (T98G cells [10]): 2.0 µM
level of ARS in combination with MeLex (T98G cells [3]): 50 sites/10^5 nucleotides

CCOC(=O)CC/C(=C\NC(=O)c1ccccc1)NC(=O)c1ccccc1 [Compound 26]
Ki (APE-1 [1]): > 100 µM

Cc1cc(N/N=C/c2c(C)n(C)n(-c3ccccc3)c2=O)c2cc3c(cc2n1)OCO3 [Compound 5]
IC50 (APE-1 [2]): 34.4 µM
Ki [6]: 1.41 µM
LD10 concentration (T98G cells [4]): 6.50 µM
fold less toxic than 4 (T98G cells [4]; assay (short or long term) not stated): ~20 fold
LD10 concentration (T98G cells [5]; long term assay): 0.90 µM
LD50 of MeLex in the presence of LD10 concentration of inhibitor (T98G cells [9]): 80 µM
LD50 of MeLex in the presence of LD10 concentration of inhibitor (T98G cells [10]): 3.6 µM
increase in ARS above background (T98G cells [3]; 0.25 μM compound): approximately 4 fold
